Measurements: PubChem BioAssay AID248 (DTP/NCI, 2004)
Where “and” joins values, the source holds several entries; their conditions need not be identical. Equal entries are not always repeated. Inconclusive results and toxic doses are left out.

Tested on: L1210 leukemia ip in BDF1 mice, survival T/C
Experiment: NCI In Vivo Anticancer Drug Screen. Data for tumor model L1210 Leukemia (intraperitoneal) in B6D2F1 (BDF1) mice
Details: endpoint: mean survival time, higher = longer survival
Procedure, shortened: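 Ratio derived from survival: compound-dosed mice over vehicle-dosed mice, all bearing a transplantable tumor.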

[1] = dose: 100.0 mg/kg/injection, schedule: Q01DX001 (ip), vehicle: Klucel (hydroxypropylcellulose) (HPC)
[2] = dose: 200.0 mg/kg/injection, schedule: Q01DX001 (ip), vehicle: Klucel (hydroxypropylcellulose) (HPC)
[3] = dose: 100.0 mg/kg/injection, schedule: Q01DX001 (ip), vehicle: saline
[4] = dose: 200.0 mg/kg/injection, schedule: Q01DX001 (ip), vehicle: saline
[5] = dose: 400.0 mg/kg/injection, schedule: Q01DX001 (ip), vehicle: saline
[6] = dose: 100.0 mg/kg/injection, schedule: Q04DX002 (ip), vehicle: saline with Tween-80
[7] = dose: 200.0 mg/kg/injection, schedule: Q04DX002 (ip), vehicle: saline with Tween-80
[8] = dose: 400.0 mg/kg/injection, schedule: Q04DX002 (ip), vehicle: saline with Tween-80
[9] = dose: 400.0 mg/kg/injection, schedule: Q01DX001 (ip), vehicle: Klucel (hydroxypropylcellulose) (HPC)
[10] = dose: 50.0 mg/kg/injection, schedule: Q04DX003 (ip), vehicle: Klucel (hydroxypropylcellulose) (HPC)
[11] = dose: 200.0 mg/kg/injection, schedule: Q04DX003 (ip), vehicle: Klucel (hydroxypropylcellulose) (HPC)

SMILES: CC1CCCCN1Cc1ccccc1COC(=O)c1cccc(Br)c1 (centres undefined)
- T/C [1]: 104 % of control
- T/C [2]: 96 % of control

SMILES: O=CNCCNC=O
- T/C (dose: 100.0 mg/kg/injection, schedule: Q01DX009 (ip), vehicle: saline): 102 % of control
- T/C (dose: 200.0 mg/kg/injection, schedule: Q01DX009 (ip), vehicle: saline): 104 % of control
- T/C (dose: 400.0 mg/kg/injection, schedule: Q01DX009 (ip), vehicle: saline): 98 % of control

SMILES: O=C(Cl)c1ccccc1/C=C/c1ccccc1
- T/C (dose: 100.0 mg/kg/injection, schedule: Q01DX009 (ip), vehicle: saline with Tween-80): 89 % of control
- T/C (dose: 200.0 mg/kg/injection, schedule: Q01DX009 (ip), vehicle: saline with Tween-80): 89 % of control
- T/C (dose: 400.0 mg/kg/injection, schedule: Q01DX009 (ip), vehicle: saline with Tween-80): 93 % of control

SMILES: CCOC(=O)CCCCC(N)=O
- T/C [3]: 104 % of control
- T/C [4]: 102 % of control
- T/C [5]: 101 % of control

SMILES: CN(C)C(=O)NC1CCc2ccc([N+](=O)[O-])cc21 (centres undefined)
- T/C [6]: 97 % of control
- T/C [7]: 108 % of control
- T/C [8]: 119 % of control

SMILES: CCC(=O)c1c(C)c(C)cc2ccccc12
- T/C (dose: 100.0 mg/kg/injection, schedule: Q01DX009 (ip), vehicle: other): 97 % of control
- T/C (dose: 200.0 mg/kg/injection, schedule: Q01DX009 (ip), vehicle: other): 95 % of control
- T/C (dose: 400.0 mg/kg/injection, schedule: Q01DX009 (ip), vehicle: other): 108 % of control

SMILES: CC1([CH2][Hg][Cl])Cc2ccccc2O1 (centres undefined)
- T/C (dose: 6.25 mg/kg/injection, schedule: Q04DX003 (ip), vehicle: saline with Tween-80): 96 % of control

SMILES: CC12NC(=O)NC(=O)N1CCS2 (centres undefined)
- T/C (dose: 50.0 mg/kg/injection, schedule: Q01DX001 (ip), vehicle: saline): 100 % of control
- T/C [3]: 106 % of control
- T/C [4]: 102 % of control
- T/C [5]: 100 % of control

SMILES: CC(NC(=O)C(C)(C)C)c1ccc2c(c1)OCCO2 (centres undefined)
- T/C [6]: 106 % of control
- T/C [7]: 95 % of control
- T/C [8]: 95 % of control

SMILES: CCOC(=O)c1ccc(NCC(=N)N)cc1
- T/C (dose: 100.0 mg/kg/injection, schedule: Q01DX001 (ip), vehicle: saline sonified): 103 % of control
- T/C (dose: 200.0 mg/kg/injection, schedule: Q01DX001 (ip), vehicle: saline sonified): 100 % of control

SMILES: CCC(C)C(CN)(CCCCN1CCCCC1)c1cccc2ccccc12 (centres undefined)
- T/C (dose: 100.0 mg/kg/injection, schedule: Q04DX003 (ip), vehicle: saline with Tween-80): 97 % of control
- T/C (dose: 200.0 mg/kg/injection, schedule: Q04DX003 (ip), vehicle: saline with Tween-80): 90 % of control

SMILES: NCCCNC/C=C/CNCCCN
- T/C (dose: 75.0 mg/kg/injection, schedule: Q04DX003 (ip), vehicle: saline): 105 % of control
- T/C (dose: 150.0 mg/kg/injection, schedule: Q04DX003 (ip), vehicle: saline): 102 % of control
- T/C (dose: 300.0 mg/kg/injection, schedule: Q04DX003 (ip), vehicle: saline): 104 % of control

SMILES: O=C(Nc1cccc([N+](=O)[O-])c1)Nc1cccc(C(F)(F)F)c1
- T/C (dose: 100.0 mg/kg/injection, schedule: Q04DX002 (ip), vehicle: Klucel (hydroxypropylcellulose) (HPC)): 101 % of control
- T/C (dose: 200.0 mg/kg/injection, schedule: Q04DX002 (ip), vehicle: Klucel (hydroxypropylcellulose) (HPC)): 99 % of control
- T/C (dose: 400.0 mg/kg/injection, schedule: Q04DX002 (ip), vehicle: Klucel (hydroxypropylcellulose) (HPC)): 96 % of control

SMILES: Cc1c2ccccc2[n+](C)c2ccc3ccccc3c12
- T/C (dose: 75.0 mg/kg/injection, schedule: Q01DX001 (ip), vehicle: carboxymethylcellulose (CMC)): 94 % of control
- T/C (dose: 150.0 mg/kg/injection, schedule: Q01DX001 (ip), vehicle: carboxymethylcellulose (CMC)): 94 % of control
- T/C (dose: 300.0 mg/kg/injection, schedule: Q01DX001 (ip), vehicle: carboxymethylcellulose (CMC)): 96 % of control

SMILES: CCOC(=O)CSC(=S)N1CCOCC1
- T/C [1]: 94 % of control
- T/C [2]: 97 % of control
- T/C [9]: 102 % of control

SMILES: COC(=O)CC(Cc1cc(OC)ccc1OC)(C(=O)OC)C(=O)OC
- T/C (dose: 12.5 mg/kg/injection, schedule: Q04DX003 (ip), vehicle: Klucel (hydroxypropylcellulose) (HPC)): 102 % of control
- T/C (dose: 25.0 mg/kg/injection, schedule: Q04DX003 (ip), vehicle: Klucel (hydroxypropylcellulose) (HPC)): 94 % of control
- T/C [10]: 98 % of control
- T/C [1]: 106 % of control
- T/C (dose: 100.0 mg/kg/injection, schedule: Q04DX003 (ip), vehicle: Klucel (hydroxypropylcellulose) (HPC)): 105 % of control
- T/C [2]: 97 % of control
- T/C [11]: 103 % of control
- T/C [9]: 98 % of control
- T/C (dose: 400.0 mg/kg/injection, schedule: Q04DX003 (ip), vehicle: Klucel (hydroxypropylcellulose) (HPC)): 105 % of control

SMILES: CCCC(CC)C(C(=O)OCC)C1=NC(C)(C)CC(C)O1 (centres undefined)
- T/C (dose: 100.0 mg/kg/injection, schedule: Q01DX009 (ip), vehicle: saline sonified): 98 % of control
- T/C (dose: 200.0 mg/kg/injection, schedule: Q01DX009 (ip), vehicle: saline sonified): 104 % of control
- T/C (dose: 400.0 mg/kg/injection, schedule: Q01DX009 (ip), vehicle: saline sonified): 93 % of control

SMILES: Nc1nc(=S)c2[nH]c(N=Nc3ccc(S(N)(=O)=O)cc3)nc2[nH]1
- T/C (dose: 50.0 mg/kg/injection, schedule: Q01DX009 (ip), vehicle: Klucel (hydroxypropylcellulose) (HPC)): 97 % of control
- T/C [10]: 151 % of control
- T/C (dose: 100.0 mg/kg/injection, schedule: Q01DX009 (ip), vehicle: Klucel (hydroxypropylcellulose) (HPC)): 100 % of control
- T/C (dose: 200.0 mg/kg/injection, schedule: Q01DX009 (ip), vehicle: Klucel (hydroxypropylcellulose) (HPC)): 100 % of control
- T/C [11]: 94 % of control

SMILES: O=C(COc1ccccc1)NCCc1ccccc1
- T/C (dose: 100.0 mg/kg/injection, schedule: Q04DX003 (ip), vehicle: gum acacia): 97 % of control
- T/C (dose: 200.0 mg/kg/injection, schedule: Q04DX003 (ip), vehicle: gum acacia): 108 % of control
- T/C (dose: 400.0 mg/kg/injection, schedule: Q04DX003 (ip), vehicle: gum acacia): 95 % of control

SMILES: CCNC(C)(C)C(SS)c1ccc(Br)cc1 (centres undefined)
- T/C (dose: 6.25 mg/kg/injection, schedule: Q01DX009 (ip), vehicle: water): 98 % of control
- T/C (dose: 12.5 mg/kg/injection, schedule: Q01DX009 (ip), vehicle: water): 96 % of control
- T/C (dose: 25.0 mg/kg/injection, schedule: Q01DX009 (ip), vehicle: water): 94 % of control
- T/C (dose: 50.0 mg/kg/injection, schedule: Q01DX009 (ip), vehicle: water): 94 % of control and 91 % of control
- T/C (dose: 100.0 mg/kg/injection, schedule: Q01DX009 (ip), vehicle: water): 101 % of control
- T/C (dose: 200.0 mg/kg/injection, schedule: Q01DX009 (ip), vehicle: water): 93 % of control
- T/C (dose: 400.0 mg/kg/injection, schedule: Q01DX009 (ip), vehicle: water): 93 % of control

SMILES: CCCCCCCN(CCCCCCC)CCC(=O)c1ccc2cc(Br)c3ccccc3c2c1
- T/C (dose: 55.0 mg/kg/injection, schedule: Q01DX Z (ip), vehicle: methylcellulose (MC)): 97 % of control
- T/C (dose: 83.0 mg/kg/injection, schedule: Q01DX Z (ip), vehicle: methylcellulose (MC)): 86 % of control
- T/C (dose: 125.0 mg/kg/injection, schedule: Q01DX Z (ip), vehicle: methylcellulose (MC)): 97 % of control

SMILES: O=C1C(Cl)=C(NCc2ccco2)C(=O)c2ccccc21
- T/C (dose: 77.0 mg/kg/injection, schedule: Q01DX Z (ip), vehicle: methylcellulose (MC)): 89 % of control
- T/C (dose: 116.0 mg/kg/injection, schedule: Q01DX Z (ip), vehicle: methylcellulose (MC)): 87 % of control
- T/C (dose: 175.0 mg/kg/injection, schedule: Q01DX Z (ip), vehicle: methylcellulose (MC)): 95 % of control
